Reference: US8957093B2, “N-biphenylmethylindole modulators of PPARG” (The Scripps Research Institute, priority 2011, dated 2015)
Read-outs that look alike come from different tables or passages of the source.

Experiments:
[1] = system: PPARG (murine PPARg2 or full-length human PPARG, 3xPPRE-luciferase reporter); test: Cell-based PPRE-luciferase transactivation assay in COS-1 cells; details: for EC50: read-out: EC50 (nM) PPRE
Method: Cell-Based Transactivation Assay:
PPRE is a DNA that contains a binding site for PPARG; thus PPRE is a PPAR response element, used herein as a promoter reporter. The binding site is a DR1 response element with the sequence AGGTCA repeated 3 times in tandem and then fused to a construct for luciferase.
Thus, PPRE is the basis of the cell based transactivation assay described below. The plasmid DNA is co-transfected along with a plasmid for PPARG into COS-1 cells. After an overnight incubation, cells are treated with DMSO or compounds.
Confluent COS-1 cells were transfected with 4.5 μg murine PPARg2-pSV Sport or full-length human PPAR9-pSport6, 4.5 μg 3×PPRE-luciferase reporter and 27 μL X-treme Gene 9 transfection reagent in serum-free opti-mem media (Gibco), followed by overnight incubation at 37° C., 5% CO2. Transfected cells were plated in white Perkin Elmer 384-well plates and incubated 4 hours. […] After 18 hour incubation, treated cells were developed with Brite Lite Plus (Perkin Elmer) and read in 384-well Luminescence Perkin Elmer EnVision Multilabel plate reader. Graphs were plotted in triplicate in GraphPad Prism Software as fold change of treated cells over DMSO control cells.

[2] = target: GST-PPARG-LBD (Homo sapiens (Human), UniProt P37231); test: Lanthascreen PPARG competitive binding assay (Invitrogen, TR-FRET); details: Lanthascreen competitive binding; NA = not active; inc = incomplete curve; read-out: IC50 (nM) Lantha
Chain of GST-PPARG-LBD (P37231 238-503): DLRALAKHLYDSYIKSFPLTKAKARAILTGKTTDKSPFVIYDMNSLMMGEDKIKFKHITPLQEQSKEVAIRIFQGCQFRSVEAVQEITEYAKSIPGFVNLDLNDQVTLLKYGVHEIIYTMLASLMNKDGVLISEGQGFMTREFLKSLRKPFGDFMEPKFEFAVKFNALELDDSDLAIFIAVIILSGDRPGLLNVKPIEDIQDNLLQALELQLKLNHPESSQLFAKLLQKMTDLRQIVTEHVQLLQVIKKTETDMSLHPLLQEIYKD
Procedure, shortened: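 Values are fold change in 520 nm/490 nm FRET ratio relative to a 2% DMSO no-ligand control, excitation 340 nm. Compound dilutions starting at 10 μM competed against 5 nM Fluormone Pan-PPAR Green for GST-PPARG-LBD bound by 5 nM Tb anti-GST antibody. Incubation 2 h in the dark in assay buffer C, triplicate wells.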

[3] = PPRE-luciferase, COS-1 cells, NA = not active

In the case of `Cc1c(C)n(Cc2ccc(-c3ccccc3C(=O)O)cc2)c2ccc(C(=O)NC(C)CCc3ccccc3)cc12` (stereo not drawn) [Example 117, 4′-((2,3-dimethyl-5-(4-phenylbutan-2-ylcarbamoyl)-1H-indol-1-yl)methyl)biphenyl-2-carboxylic acid], the EC50 [1, 3] is reported as 3 nM, the “PPRE transactivation (% in parentheses)” value ([1]; rosiglitazone = 100%) is reported as “(17%)” and the IC50 [2] is reported as 3 nM.

`Cc1c(C)n(Cc2ccc(-c3ccccc3C(=O)O)cc2)c2ccc(C(=O)NCc3ccccc3Br)cc12` [Example 118, 4′-((5-((2-Bromobenzyl)carbamoyl)-2,3-dimethyl-1H-indol-1-yl)methyl)-[1,1′-biphenyl]-2-carboxylic acid] was tested, and the EC50 [1, 3] was 86 nM, the “PPRE transactivation (% in parentheses)” value ([1]; rosiglitazone = 100%) was “(8%)” and the IC50 [2] was 17 nM.

`C[C@H](NC(=O)c1ccc2c(ccn2Cc2ccc(-c3ccccc3C(=O)O)cc2)c1)c1ccc(Br)cc1` [Example 130, (S)-4′-((5-((1-(4-Bromophenyl)ethyl)carbamoyl)-1H-indol-1-yl)methyl)-[1,1′-biphenyl]-2-carboxylic acid] was tested, and the “PPRE transactivation (% in parentheses)” value ([1]; rosiglitazone = 100%) was “(0%)” and the IC50 [2] was 163 nM.

For `CCC(NC(=O)c1ccc2c(ccn2Cc2ccc(-c3ccccc3C(=O)O)cc2)c1)c1ccccc1` (stereo not drawn) [Example 131, 4′-((5-((1-Phenylpropyl)carbamoyl)-1H-indol-1-yl)methyl)-[1,1′-biphenyl]-2-carboxylic acid], the EC50 [1, 3] was 6 nM, the “PPRE transactivation (% in parentheses)” value ([1]; rosiglitazone = 100%) was “(20%)” and the IC50 [2] was 6 nM.

With `Cc1cc2cc(C(=O)N[C@@H](C)c3ccc(Br)cc3)ccc2n1Cc1ccc(-c2ccccc2C(=O)O)cc1` [Example 135, (S)-4′-((5-((1-(4-Bromophenyl)ethyl)carbamoyl)-2-methyl-1H-indol-1-yl)methyl)-[1,1′-biphenyl]-2-carboxylic acid] the “PPRE transactivation (% in parentheses)” value ([1]; rosiglitazone = 100%) was “(0%)” and the IC50 [2] was 80 nM.

With `Cc1c(C)n(Cc2ccc(-c3ccccc3C(=O)O)cc2)c2ccc(C(=O)N[C@@H]3COc4ccccc4C3)cc12` [Example 250, (S)-4′-((5-(chroman-3-ylcarbamoyl)-2,3-dimethyl-1H-indol-1-yl)methyl)-[1,1′-biphenyl]-2-carboxylic acid] the “PPRE transactivation (% in parentheses)” value ([1]; rosiglitazone = 100%) was “(0%)” and the IC50 [2] was 88 nM.

For `Cc1c(C)n(Cc2ccc(-c3ccccc3C(=O)O)cc2)c2ccc(C(=O)NCc3cccc(S(C)(=O)=O)c3)cc12` [compound 4, 4′-((2,3-Dimethyl-5-(3-(methylsulfonyl)benzylcarbamoyl)-1H-indol-1-yl)methyl)biphenyl-2-carboxylic acid], the “PPRE transactivation (% in parentheses)” value ([1]; rosiglitazone = 100%) was “(0%)” and the IC50 [2] was 230 nM.

With `Cc1c(C)n(Cc2ccc(-c3ccccc3C(=O)O)cc2)c2ccc(C(=O)NCc3cccc(OC(F)(F)F)c3)cc12` [compound 5, 4′-((2,3-Dimethyl-5-(3-(trifluoromethoxy)benzylcarbamoyl)-1H-indol-1-yl)methyl)biphenyl-2-carboxylic acid] the “PPRE transactivation (% in parentheses)” value ([1]; rosiglitazone = 100%) was “(0%)” and the IC50 [2] was 157 nM.

For `Cc1c(C)n(Cc2ccc(-c3ccccc3C(=O)O)cc2)c2ccc(C(=O)NCc3ccc(I)cc3)cc12` [compound 7, 4′-((5-(4-Iodobenzylcarbamoyl)-2,3-dimethyl-1H-indol-1-yl)methyl)biphenyl-2-carboxylic acid], the EC50 [1, 3] was 19 nM, the “PPRE transactivation (% in parentheses)” value ([1]; rosiglitazone = 100%) was “(23%)” and the IC50 [2] was 4 nM.

`Cc1c(C)n(Cc2ccc(-c3ccccc3C(=O)O)cc2)c2ccc(C(=O)NCc3ccc(C#N)cc3)cc12` [compound 8, 4′-((5-(4-Cyanobenzylcarbamoyl)-2,3-dimethyl-1H-indol-1-yl)methyl)biphenyl-2-carboxylic acid] was tested, and the EC50 [1, 3] was 9000 nM, the “PPRE transactivation (% in parentheses)” value ([1]; rosiglitazone = 100%) was “(12%)” and the IC50 [2] was 34 nM.

With `Cc1c(C)n(Cc2ccc(-c3ccccc3C(=O)O)cc2)c2ccc(C(=O)NCc3ccc(C(C)C)cc3)cc12` [compound 9, 4′-((5-(4-Isopropylbenzylcarbamoyl)-2,3-dimethyl-1H-indol-1-yl)methyl)biphenyl-2-carboxylic acid] the EC50 [1, 3] was 7 nM, the “PPRE transactivation (% in parentheses)” value ([1]; rosiglitazone = 100%) was “(18%)” and the IC50 [2] was 23 nM.

In the case of `Cc1c(C)n(Cc2ccc(-c3ccccc3C(=O)O)cc2)c2ccc(C(=O)NCc3ccc(S(C)(=O)=O)cc3)cc12` [compound 10, 4′-((2,3-Dimethyl-5-(4-(methylsulfonyl)benzylcarbamoyl)-1H-indol-1-yl)methyl)biphenyl-2-carboxylic acid], the “PPRE transactivation (% in parentheses)” value ([1]; rosiglitazone = 100%) is reported as “(0%)” and the IC50 [2] is reported as 553 nM.

With `Cc1c(C)n(Cc2ccc(-c3ccccc3C(=O)O)cc2)c2ccc(C(=O)NCc3ccc(N(C)C)cc3)cc12` [compound 11, 4′-((5-(4-(Dimethylamino)benzylcarbamoyl)-2,3-dimethyl-1H-indol-1-yl)methyl)biphenyl-2-carboxylic acid] the EC50 [1, 3] was 154 nM, the “PPRE transactivation (% in parentheses)” value ([1]; rosiglitazone = 100%) was “(29%)” and the IC50 [2] was 13 nM.

`Cc1c(C)n(Cc2ccc(-c3ccccc3C(=O)O)cc2)c2ccc(C(=O)NCc3ccc(Cl)cc3)cc12` [compound 14, 4′-((5-(4-Chlorobenzylcarbamoyl)-2,3-dimethyl-1H-indol-1-yl)methyl)biphenyl-2-carboxylic acid] was tested, and the EC50 [1, 3] was 70 nM, the “PPRE transactivation (% in parentheses)” value ([1]; rosiglitazone = 100%) was “(21%)” and the IC50 [2] was 4 nM.

`COC(=O)c1ccc(CNC(=O)c2ccc3c(c2)c(C)c(C)n3Cc2ccc(-c3ccccc3C(=O)O)cc2)cc1` [compound 16, 4′-((5-(4-(Methoxycarbonyl)benzylcarbamoyl)-2,3-dimethyl-1H-indol-1-yl)methyl)biphenyl-2-carboxylic acid] was tested, and the EC50 [1, 3] was 59 nM, the “PPRE transactivation (% in parentheses)” value ([1]; rosiglitazone = 100%) was “(23%)” and the IC50 [2] was 2 nM.

In the case of `Cc1c(C)n(Cc2ccc(-c3ccccc3C(=O)O)cc2)c2ccc(C(=O)NCc3ccc(S(N)(=O)=O)cc3)cc12` [compound 17, 4′-((2,3-Dimethyl-5-(4-sulfamoylbenzylcarbamoyl)-1H-indol-1-yl)methyl)biphenyl-2-carboxylic acid], the “PPRE transactivation (% in parentheses)” value ([1]; rosiglitazone = 100%) is reported as “(0%)” and the IC50 [2] is reported as 300 nM.

For `COc1ccc(CNC(=O)c2ccc3c(c2)c(C)c(C)n3Cc2ccc(-c3ccccc3C(=O)O)cc2)c(OC)c1` [compound 20, 4′-((5-(2,4-Dimethoxybenzylcarbamoyl)-2,3-dimethyl-1H-indol-1-yl)methyl)biphenyl-2-carboxylic acid], the “PPRE transactivation (% in parentheses)” value ([1]; rosiglitazone = 100%) was “(0%)” and the IC50 [2] was 16 nM.

For `COc1cccc([C@H](C)NC(=O)c2ccc3c(c2)c(C)c(C)n3Cc2ccc(-c3ccccc3C(=O)O)cc2)c1` [compound 21, (S)-4′-((5-(1-(3-Methoxyphenyl)ethylcarbamoyl)-2,3-dimethyl-1H-indol-1-yl)methyl)biphenyl-2-carboxylic acid], the EC50 [1, 3] was 46 nM, the “PPRE transactivation (% in parentheses)” value ([1]; rosiglitazone = 100%) was “(12%)” and the IC50 [2] was 13 nM.

With `COc1ccc(CNC(=O)c2ccc3c(c2)c(C)c(C)n3Cc2ccc(-c3ccccc3C(=O)O)cc2)cc1OC` [compound 24, 4′-((5-(3,4-Dimethoxybenzylcarbamoyl)-2,3-dimethyl-1H-indol-1-yl)methyl)biphenyl-2-carboxylic acid] the “PPRE transactivation (% in parentheses)” value ([1]; rosiglitazone = 100%) was “(0%)” and the IC50 [2] was 125 nM.

With `Cc1c(C)n(Cc2ccc(-c3ccccc3C(=O)O)cc2)c2ccc(C(=O)NC(C)(C)c3ccccc3)cc12` [compound 25, 4′-((2,3-Dimethyl-5-((2-phenylpropan-2-yl)carbamoyl)-1H-indol-1-yl)methyl)-[1,1′-biphenyl]-2-carboxylic acid] the EC50 [1, 3] was 2.5 nM, the “PPRE transactivation (% in parentheses)” value ([1]; rosiglitazone = 100%) was “(15%)” and the IC50 [2] was 0.5 nM.

`Cc1c(C)n(Cc2ccc(-c3ccccc3C(=O)O)cc2)c2ccc(C(=O)N[C@@H](C)c3ccc(Cl)cc3)cc12` [compound 27, (S)-4′-((5-((1-(4-Chlorophenyl)ethyl)carbamoyl)-2,3-dimethyl-1H-indol-1-yl)methyl)-[1,1′-biphenyl]-2-carboxylic acid] was tested, and the EC50 [1, 3] was 33 nM, the “PPRE transactivation (% in parentheses)” value ([1]; rosiglitazone = 100%) was “(6%)” and the IC50 [2] was 53 nM.

For `Cc1c(C)n(Cc2ccc(-c3ccccc3C(=O)O)cc2)c2ccc(C(=O)N[C@@H](C)c3cccc(Br)c3)cc12` [compound 30, (S)-4′-((5-((1-(3-Bromophenyl)ethyl)carbamoyl)-2,3-dimethyl-1H-indol-1-yl)methyl)-[1,1′-biphenyl]-2-carboxylic acid], the “PPRE transactivation (% in parentheses)” value [1] was “(18%)”, the EC50 [1] was 20 nM and the IC50 [2] was 58 nM.
